Assay [1] deals with Adenosine A2A receptor (Tag-lite Adenosine A2A labeled cells) (Homo sapiens (Human), UniProt P29274). Briefly: A2A Tag-lite HTRF assay (fluorescent ligand displacement). Conditions: Red antagonist fluorescent ligand 12.5 nM, one-site competitive binding model, read-out: A2A_Ki. From the text:
Example C. A2A Tag-Lite® HTRF Assay
The final concentration of DMSO was 1%.
(In general: TR-FRET usually uses a lanthanide donor and a delayed reading to cut background.)

For assay [2], the target named is human adenosine A2B receptor (Homo sapiens (Human), UniProt P29275). Briefly: Adenosine A2B Receptor Cyclic AMP GS Assay. It counts as cell-based. Conditions: HEK-293 cells expressing human A2B; agonist NECA 12 nM; cAMP accumulation by FRET; read-out: A2B_cAMP_EC50. As for the experimental part: Example B. Adenosine A2B Receptor Cyclic AMP GS Assay Stably transfected HEK-293 cells expressing the human adenosine A2B receptor (Perkin Elmer) were maintained in MEM culture medium with 10% FBS and 100 μg/ml Geneticin (Life Technologies). 18 to 24 hours prior to assay, geneticin was removed from culture. The cisbio cAMP-GS Dynamic kit utilizing the FRET (Fluorescence Resonance Energy Transfer) technology was used to measure cAMP accumulation in the cells. Compounds of the present disclosure at an appropriate concentration were mixed with 10000 cells/well in white 96 well half area plates (Perkin Elmer) for 30 min at room temperature gently shaking. Agonist, NECA (R&D Technologies) at 12 nM was added to each well for 60 min at room temperature gently shaking. Detection reagents, d2-labeled cAMP (acceptor) and anti-cAMP cryptate (donor) were added to each well for 60 min at RT gently shaking. Plates were read on Pherastar (BMG Labtech), fluorescence ratio 665/620 was calculated and EC50 determination was performed by fitting the curve of percent of control versus the log of the compound concentration using GraphPad Prism.
(Changes in cAMP serve as a functional read-out for many G protein-coupled receptors.)

Adenosine A2A receptor (Tag-lite Adenosine A2A labeled cells), sequence (P29274 whole entry): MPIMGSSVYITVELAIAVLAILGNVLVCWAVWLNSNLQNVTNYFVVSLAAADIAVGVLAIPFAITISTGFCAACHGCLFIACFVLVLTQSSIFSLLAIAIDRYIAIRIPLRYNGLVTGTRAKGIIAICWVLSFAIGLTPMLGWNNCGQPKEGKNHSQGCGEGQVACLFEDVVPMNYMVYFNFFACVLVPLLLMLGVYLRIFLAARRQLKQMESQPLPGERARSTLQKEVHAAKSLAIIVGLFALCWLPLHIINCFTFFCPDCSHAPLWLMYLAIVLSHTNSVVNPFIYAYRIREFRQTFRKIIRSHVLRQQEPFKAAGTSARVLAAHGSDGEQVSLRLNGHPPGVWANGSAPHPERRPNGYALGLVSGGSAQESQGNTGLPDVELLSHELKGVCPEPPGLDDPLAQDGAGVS
human adenosine A2B receptor, sequence (P29275 whole entry): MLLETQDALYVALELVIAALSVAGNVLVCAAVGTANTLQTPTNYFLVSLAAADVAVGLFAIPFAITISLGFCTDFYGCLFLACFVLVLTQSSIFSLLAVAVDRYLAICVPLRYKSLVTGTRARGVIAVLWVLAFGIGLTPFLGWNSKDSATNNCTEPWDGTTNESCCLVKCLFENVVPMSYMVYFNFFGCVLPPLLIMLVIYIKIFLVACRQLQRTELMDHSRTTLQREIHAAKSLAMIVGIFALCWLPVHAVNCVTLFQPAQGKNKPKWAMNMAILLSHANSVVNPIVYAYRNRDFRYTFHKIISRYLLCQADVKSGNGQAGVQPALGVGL

Consider `CCCCCn1c2cc[nH]c2c(=O)n2c(C)cnc12` [Example 18, 7-Methyl-4-pentyl-1H-imidazo[1,2-a]pyrrolo[3,2-d]pyrimidin-9(4H)-one], for which the Ki in assay [1] is 0.01 to 0.1 µM.
`CCCCn1c2cc(-c3cnn(C4CN(c5ncccn5)C4)c3)[nH]c2c(=O)n2c(C)nnc12` [Example 24, 9-Butyl-3-methyl-7-(1-(1-(pyrimidin-2-yl)azetidin-3-yl)-1H-pyrazol-4-yl)-6,9-dihydro-5H-pyrrolo[3,2-d][1,2,4]triazolo[4,3-a]pyrimidin-5-one]: the Ki in assay [1] was below 0.01 µM. Moreover, in assay [2], the EC50 is 0.01 to 0.1 µM.
The corresponding values for `CCCCCn1c2cc(-c3cnn(C4CN(c5nccc(NCCO)n5)C4)c3)[nH]c2c(=O)n2c(C)nnc12` [Example 22, 7-(1-(1-(4-(2-Hydroxyethylamino)pyrimidin-2-yl)azetidin-3-yl)-1H-pyrazol-4-yl)-3-methyl-9-pentyl-6,9-dihydro-5H-pyrrolo[3,2-d][1,2,4]triazolo[4,3-a]pyrimidin-5-one] are below 0.01 µM and 0.01 to 0.1 µM.
On to `CCCCn1c2cc(-c3cnn(C4CN(c5ncc(F)c(N)n5)C4)c3)[nH]c2c(=O)n2c(C)nnc12` [Example 29, 7-(1-(1-(4-Amino-5-fluoropyrimidin-2-yl)azetidin-3-yl)-1H-pyrazol-4-yl)-9-butyl-3-methyl-6,9-dihydro-5H-pyrrolo[3,2-d][1,2,4]triazolo[4,3-a]pyrimidin-5-one], for which the Ki in assay [1] was below 0.01 µM. Moreover, the EC50 in assay [2] lay in the range of 0.01 to 0.1 µM.
The corresponding values for `CCCCCn1c2cc(-c3cnn(Cc4cnc5cccnc5c4)c3)[nH]c2c(=O)n2c(C)nnc12` [Example 6, 7-(1-((1,5-Naphthyridin-3-yl)methyl)-1H-pyrazol-4-yl)-3-methyl-9-pentyl-6,9-dihydro-5H-pyrrolo[3,2-d][1,2,4]triazolo[4,3-a]pyrimidin-5-one] are below 0.01 µM and 0.01 to 0.1 µM.
The corresponding values for `CCCCCn1c2cc(-c3cnn(Cc4cnc5cccnc5c4)c3)[nH]c2c(=O)n2c(C(F)(F)F)nnc12` [Example 12, 7-(1-((1,5-Naphthyridin-3-yl)methyl)-1H-pyrazol-4-yl)-9-pentyl-3-(trifluoromethyl)-6,9-dihydro-5H-pyrrolo[3,2-d][1,2,4]triazolo[4,3-a]pyrimidin-5-one] are below 0.01 µM and below 0.01 µM.
For `CCCCCn1c2cc(-c3cnn(Cc4cnc5cnn(C)c5c4)c3)[nH]c2c(=O)n2c(C)nnc12` [Example 7, 3-Methyl-7-(1-((1-methyl-1H-pyrazolo[4,3-b]pyridin-6-yl)methyl)-1H-pyrazol-4-yl)-9-pentyl-6,9-dihydro-5H-pyrrolo[3,2-d][1,2,4]triazolo[4,3-a]pyrimidin-5-one] the same measures were below 0.01 µM and 0.01 to 0.1 µM.
Take `CCCCCn1c2cc(-c3cnn(C4CN(c5nccc(NC)n5)C4)c3)[nH]c2c(=O)n2c(C)nnc12` [Example 23, 3-Methyl-7-(1-(1-(4-(methylamino)pyrimidin-2-yl)azetidin-3-yl)-1H-pyrazol-4-yl)-9-pentyl-6,9-dihydro-5H-pyrrolo[3,2-d][1,2,4]triazolo[4,3-a]pyrimidin-5-one]: in assay [1], the Ki was below 0.01 µM. Also, the EC50 in assay [2] is 0.01 to 0.1 µM.
As for `CCCCCn1c2cc(-c3cnn(Cc4ccc5c(c4)CCN(C(=O)CN(C)C)C5)c3)[nH]c2c(=O)n2c(C)nnc12` [Example 30, 7-(1-((2-(2-(Dimethylamino)acetyl)-1,2,3,4-tetrahydroisoquinolin-6-yl)methyl)-1H-pyrazol-4-yl)-3-methyl-9-pentyl-6,9-dihydro-5H-pyrrolo[3,2-d][1,2,4]triazolo[4,3-a]pyrimidin-5-one], in assay [1], the Ki was below 0.01 µM. Also, the EC50 in assay [2] is below 0.01 µM.
`CCCCCn1c2cc(-c3cnn(Cc4cncc(F)c4)c3)[nH]c2c(=O)n2c(C)nnc12` [Example 9, 7-(1-((5-Fluoropyridin-3-yl)methyl)-1H-pyrazol-4-yl)-3-methyl-9-pentyl-6,9-dihydro-5H-pyrrolo[3,2-d][1,2,4]triazolo[4,3-a]pyrimidin-5-one]: the Ki in assay [1] is below 0.01 µM. Moreover, in assay [2], the EC50 was 0.01 to 0.1 µM.
As for `CCCCCn1c2c(C)c[nH]c2c(=O)n2c(C)nnc12` [Example 14, 3,8-Dimethyl-9-pentyl-6,9-dihydro-5H-pyrrolo[3,2-d][1,2,4]triazolo[4,3-a]pyrimidin-5-one], the Ki in assay [1] is 0.1 to 1 µM.
On to `CCCCn1c2cc(-c3cnn(C4CN(c5nccc(N)n5)C4)c3)[nH]c2c(=O)n2c(C)nnc12` [Example 28, 7-(1-(1-(4-Aminopyrimidin-2-yl)azetidin-3-yl)-1H-pyrazol-4-yl)-9-butyl-3-methyl-6,9-dihydro-5H-pyrrolo[3,2-d][1,2,4]triazolo[4,3-a]pyrimidin-5-one], for which the Ki in assay [1] is below 0.01 µM. Moreover, the EC50 in assay [2] lay within 0.01 to 0.1 µM.
For `CCCCCn1c2cc(-c3ccc(S(=O)(=O)Nc4ccc(C)cc4)cc3)[nH]c2c(=O)n2c(C)nnc12` [Example 11, 4-(3-Methyl-5-oxo-9-pentyl-6,9-dihydro-5H-pyrrolo[3,2-d][1,2,4]triazolo[4,3-a]pyrimidin-7-yl)-N-p-tolylbenzenesulfonamide], the Ki in assay [1] fell in the range of 0.01 to 0.1 µM.
As to `CCCCCn1c2cc(-c3cnn(Cc4cncc(Cl)c4)c3)[nH]c2c(=O)n2c(C)nnc12` [Example 2, 7-(1-((5-Chloropyridin-3-yl)methyl)-1H-pyrazol-4-yl)-3-methyl-9-pentyl-6,9-dihydro-5H-pyrrolo[3,2-d][1,2,4]triazolo[4,3-a]pyrimidin-5-one], the Ki in assay [1] is below 0.01 µM. Moreover, the EC50 in assay [2] fell in the range of 0.01 to 0.1 µM.
The corresponding values for `CCCCCn1c2cc(-c3cnn(Cc4ccn5ccnc5c4)c3)[nH]c2c(=O)n2c(C)nnc12` [Example 5, 7-(1-(Imidazo[1,2-a]pyridin-7-ylmethyl)-1H-pyrazol-4-yl)-3-methyl-9-pentyl-6,9-dihydro-5H-pyrrolo[3,2-d][1,2,4]triazolo[4,3-a]pyrimidin-5-one] are below 0.01 µM and 0.01 to 0.1 µM.
For `CCCCn1c2cc(-c3cnn(C4CN(c5nccc(C#N)n5)C4)c3)[nH]c2c(=O)n2c(C)nnc12` [Example 25, 2-(3-(4-(9-Butyl-3-methyl-5-oxo-6,9-dihydro-5H-pyrrolo[3,2-d][1,2,4]triazolo[4,3-a]pyrimidin-7-yl)-1H-pyrazol-1-yl)azetidin-1-yl)pyrimidine-4-carbonitrile] the same measures were below 0.01 µM and 0.01 to 0.1 µM.
Consider `CCCCCn1c2cc[nH]c2c(=O)n2c(C)nnc12` [Example 1, 3-Methyl-9-pentyl-6,9-dihydro-5H-pyrrolo[3,2-d][1,2,4]triazolo[4,3-a]pyrimidin-5-one], for which, in assay [1], the Ki was 0.1 to 1 µM.
On to `CCCCCn1c2c(Br)c[nH]c2c(=O)n2c(C)nnc12` [Example 13, 8-Bromo-3-methyl-9-pentyl-6,9-dihydro-5H-pyrrolo[3,2-d][1,2,4]triazolo[4,3-a]pyrimidin-5-one], for which the Ki in assay [1] fell in the range of 0.01 to 0.1 µM.
On to `CCCCCn1c2cc(-c3cnn(C4CN(c5ncccn5)C4)c3)[nH]c2c(=O)n2c(C)nnc12` [Example 19, 3-Methyl-9-pentyl-7-(1-(1-(pyrimidin-2-yl)azetidin-3-yl)-1H-pyrazol-4-yl)-6,9-dihydro-5H-pyrrolo[3,2-d][1,2,4]triazolo[4,3-a]pyrimidin-5-one], for which, in assay [1], the Ki was below 0.01 µM. In addition, in assay [2], the EC50 lay within 0.01 to 0.1 µM.
The corresponding values for `CCCCCn1c2cc(-c3cnn(Cc4cccnc4)c3)[nH]c2c(=O)n2c(C)nnc12` [Example 8, 3-Methyl-9-pentyl-7-(1-(pyridin-3-ylmethyl)-1H-pyrazol-4-yl)-6,9-dihydro-5H-pyrrolo[3,2-d][1,2,4]triazolo[4,3-a]pyrimidin-5-one] are below 0.01 µM and 0.01 to 0.1 µM.
`CCCCCn1c2c(C#N)c[nH]c2c(=O)n2c(C)nnc12` [Example 16, 3-Methyl-5-oxo-9-pentyl-6,9-dihydro-5H-pyrrolo[3,2-d][1,2,4]triazolo[4,3-a]pyrimidine-8-carbonitrile]: in assay [1], the Ki lay in the range of 0.1 to 1 µM.
Regarding `CCCCCn1c2cc(-c3cnn(Cc4cncc(C)c4)c3)[nH]c2c(=O)n2c(C)nnc12` [Example 3, 3-Methyl-7-(1-((5-methylpyridin-3-yl)methyl)-1H-pyrazol-4-yl)-9-pentyl-6,9-dihydro-5H-pyrrolo[3,2-d][1,2,4]triazolo[4,3-a]pyrimidin-5-one], in assay [1], the Ki is below 0.01 µM. Besides, in assay [2], the EC50 was below 0.01 µM.
As for `CCCCCn1c2c(-c3cnn(Cc4ccccc4)c3)c[nH]c2c(=O)n2c(C)nnc12` [Example 17, 8-(1-Benzyl-1H-pyrazol-4-yl)-3-methyl-9-pentyl-6,9-dihydro-5H-pyrrolo[3,2-d][1,2,4]triazolo[4,3-a]pyrimidin-5-one], the Ki in assay [1] was 0.1 to 1 µM.
The same measure, in the same setting: next, `CCCCCn1c2c(-c3ccccc3)c[nH]c2c(=O)n2c(C)nnc12` [Example 15, 3-Methyl-9-pentyl-8-phenyl-6,9-dihydro-5H-pyrrolo[3,2-d][1,2,4]triazolo[4,3-a]pyrimidin-5-one]: 0.1 to 1 µM; `CCCCCn1c2cc(-c3cnn(Cc4ccccc4)c3)[nH]c2c(=O)n2c(C)nnc12` [Example 10, 7-(1-Benzyl-1H-pyrazol-4-yl)-3-methyl-9-pentyl-6,9-dihydro-5H-pyrrolo[3,2-d][1,2,4]triazolo[4,3-a]pyrimidin-5-one]: below 0.01 µM.

For the origin of these results see patent US11220510B2, “Pyrrole tricyclic compounds as A2A / A2B inhibitors” (Incyte Corporation, priority 2018, dated 2022).
